Columns and labels:
Assay type in all cases: cell-based
[1] = test system: Clostridium butyricum M-II588; settings: 1 w/v% carbohydrate, anaerobic, 37°C; for hydrogen generation (hydrogen production amount): 24 hours, calculated from increased amount of gas × hydrogen concentration (FIG. 6); for increased amount of gas: preculture 5 v/v%, 24 hours (FIG. 5)
[2] = test system: Clostridium butyricum M-II588; settings: 1 w/v% carbohydrate, sugar-free medium, anaerobic, 37°C, 20 hours; compared to other carbohydrates (FIG. 1)
[3] = test system: Clostridium butyricum M-II588; settings: 1 w/v% carbohydrate, anaerobic, 37°C, 20 hours
[4] = test system: Staphylococcus aureus IFO 12732; assay: Anti-bacterial action: Staphylococcus aureus count in (co-)culture, dilution plate technique; settings: 20 hours, 37°C, anaerobic; 0.5 w/v% α-CD; butyric acid bacteria 9.4×10^6 CFU/mL; S. aureus 7.5×10^2 CFU/mL (FIG. 4)
Method: Culture of Staphylococcus aureus alone, Staphylococcus aureus and 0.5 w/v% α-CD in coexistence, Staphylococcus aureus and butyric acid bacteria in coexistence, or Staphylococcus aureus and butyric acid bacteria in coexistence with 0.5 w/v% α-CD added was performed at 37°C under an anaerobic condition, and the number of Staphylococcus aureus was counted 20 hours after the start of culture. The amount of Staphylococcus aureus added was 7.5×10^2 CFU/mL as the final concentration, and the amount of butyric acid bacteria added was 9.4×10^6 CFU/mL as the final concentration. The number of Staphylococcus aureus was measured by the dilution plate technique, that is, spreading a moderately diluted culture solution on an agar medium, culturing it at 37°C under an aerobic condition, and counting the number of colonies formed. The test results are shown as mean ± standard error of three samples.

| Molecule | hydrogen generation (hydrogen production amount) [1] | increased amount of gas [1] | proliferation of butyric acid bacteria (turbidity change (ΔOD) at 660 nm) [2] | production of butyric acid ([3]; compared to other carbohydrates (FIG. 2)) | production of acetic acid ([3]; compared to other carbohydrates (FIG. 3)) | proliferation of Staphylococcus aureus (number of Staphylococcus aureus) [4] |
| --- | --- | --- | --- | --- | --- | --- |
| OC[C@H]1O[C@@H](O[C@H]2[C@H](O)[C@@H](O)[C@@H](O[C@]3(CO)O[C@H](CO)[C@@H](O)[C@@H]3O)O[C@@H]2CO)[C@H](O)[C@@H](O)[C@H]1O [LS, Lactosucrose, reference compound] | very little | very little |  |  |  |  |
| α-cyclodextrin [α-CD] | hydrogen was generated | significantly increased | significantly promoted | significantly promoted | significantly promoted | almost no proliferation inhibiting effect |

From EP4285989A1 (priority 2021, dated 2022)
